Experimental findings from US7754718B2 (priority 2004, dated 2010) are described below.

Each structure is given as a SMILES string. Where only a bound is given, the exact number is not on record here.

Data set [1] has as its system HSV-1. Put plainly: In vitro antiviral assay for HSV-1. As to conditions: Human alphaherpesvirus 1, read-out: Antiviral Activities (EC50, μM) HSV-1. The format is cell-based, Herpes Simplex Virus 1. In short, it runs like this: (§1)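 Performed according to previously reported procedures for each virus; no further conditions are given for the HSV-2, CMV, HIV or EBV assays.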

Data set [2] deals with HIV. The data set is described as follows: In vitro antiviral assay for HIV. The format is cell-based, human immunodeficiency virus. As to conditions: Human immunodeficiency virus 1, read-out: Antiviral Activities (EC50, μM) HIV, in vitro; (T) after a value means toxic. In a few lines:
as §1

The subject of data set [3] is EBV. The data set is described as follows: In vitro antiviral assay for EBV. In kind it is cell-based, Epstein-Barr Virus. As to conditions: human gammaherpesvirus 4, read-out: Antiviral Activities (EC50, μM) EBV. In a few lines: as §1
Data set [4] is described as follows: Cell cytotoxicity assay on MT-2 cells. The format is cell-based. As to conditions: human, read-out: Cytotoxity (ID50, μM) MT-2. In short, it runs like this: (§2)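 MT-2 and CEM cytotoxicity determined per previously reported procedures. HepG2 cells seeded at 10^4 cells/ml in MEME + 10% FBS, compound added on day 2 for 3 further days at 37° C. Viable layer stained with methylene blue, solubilized in 1% sarcosyl, A595 read.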

A short description of data set [5]: Cell cytotoxicity assay on CEM cells. As to conditions: human, read-out: Cytotoxity (ID50, μM) CEM. The format is cell-based. In a few lines:
as §2

The subject of data set [6] is wt (adr) HBV. The data set is described as follows: Extracellular HBV DNA in W10 cells, real-time PCR. The format is cell-based. As to conditions: Hepatitis B virus, 144 h, 6-day treatment, HBV DNA in medium by real-time PCR. The source says:
Hep.G2.2.15 is a hepatoblastoma cell line stably transfected with a HBV genome (ayw strain) (Sells et al., 1987, Proc Natl Acad Sci USA. 84 (4):1005-1009). W10, a HepG2 cell line, was transfected with an adr HBV strain (Fu et al., 2000, Antimicrob Agents Chemother 44 (12): 3402-3407; Fu et al., 1999, Biochem Pharmacol. 57 (12): 1351-1359). These cell lines were used to assess the antiviral activity of helioxanthin and 22. Various concentrations of the drugs in minimal essential medium with Earle's salts (MEME) containing 10% fetal bovine serum (FBS) were tested in 6-day-old cultures. The drugs were left in the culture medium for 3 days, then the medium was removed and fresh medium containing the same concentration of the drugs was added. At the end of another 3-day period, the culture medium and cells were harvested to measure the HBV replication level. The Lamivudine resistant cell line DM2 (Fu et al., 2000, Antimicrob Agents Chemother 44 (12): 3402-3407) is also a hepatoblastoma cell line stably transfected with HBV genome (adr strain) which contains the L526M/M550V double mutation. The culture conditions of DM2 are the same as that of HepG.2.2.15.
Quantitative real-time PCR was used to determine the extracellular HBV copy number in the medium of DM2 cells with and without drug treatment. […] Quantification of the copy number was determined by comparing the sample amount to a standard curve generated in each run. […]
W10 and DM2 cells (Fu et al., 2000, Antimicrob Agents Chemother 44 (12): 3402-3407), were used to evaluate the effects of these two compounds on wt HBV (adr strain) and its lamivudine-resistant HBV. […] After a 6-day treatment, the amount of HBV DNA, which was secreted into the medium, was evaluated using real-time PCR (FIG. 3). […] The real-time PCR method was validated by comparing the results of intracellular HBV DNA levels obtained from the Southern blot hybridization analysis to the results from real-time PCR that measured HBV DNA copies in the HepG2.2.15 medium with or without treatment of lamivudine. […]

One may read the EC50 as the concentration needed to bring the measured effect to its halfway point. `O=C1OCc2c1cc1ccc3c(c1c2-c1ccc2c(c1)OCO2)OCO3` [Compound 2, 10-Benzo[1,3]dioxol-5-yl-9H-furo[3′,4′:6,7]naphtho[1,2-d][1,3]dioxol-7-one, reference compound]: the EC50 in data set [1] was 2 µM; in data set [2] it was > 2.5 µM; in data set [3], > 20 µM; in data set [6], 0.4 µM. In addition, the IC50 turned out to be 2.5 µM in data set [4] and 31 µM in data set [5].
Turning to `Nc1ccn([C@@H]2CS[C@H](CO)O2)c(=O)n1` [Compound 3TC, (−)-(2R,5S)-1-[2-(hydroxymethyl)oxathiolan-5-yl]cytosine], the values for the EC50 in data set [3] and in data set [6] were 0.4 µM and 0.02 ± 0.03 µM, respectively.
Turning to `COc1ccc(-c2c3c(cc4ccc5c(c24)OCO5)C(=O)NC3)cc1OC` [Compound 22, 10-(3,4-Dimethoxy-phenyl)-8,9-dihydro-1,3-dioxa-8-aza-dicyclopenta[a,g]naphthalen-7-one], the EC50 in data set [1] is 0.6 µM; in data set [2], > 16 µM; in data set [3] it was > 20 µM; in data set [6] it was 0.004 µM. Moreover, the IC50 in data set [4] is 16 µM; in data set [5] it was 5 µM.
